Reference: publication PMC5075052, “Modulation of the Substitution Pattern of 5-Aryl-2-Aminoimidazoles Allows Fine-Tuning of Their Antibiofilm Activity Spectrum and Toxicity” (Antimicrobial Agents and Chemotherapy, 2016)
Like-named read-outs stand apart in the source and are kept apart here.

Tests used:
[1] = tested on: P. aeruginosa PA14; experiment: Monospecies bacterial biofilm inhibition, static peg assay; assay type: cell-based, Pseudomonas aeruginosa; settings: Pseudomonas aeruginosa
Description: A static peg assay, described previously ([27], [74]), was used for bacterial biofilm formation. The Calgary biofilm device consists of a platform carrying 96 polystyrene pegs (Nunc no. 445497) that fits as a microtiter plate lid, with 1 peg hanging into each microtiter plate well (Nunc no. 269789). Twofold serial dilutions of the compounds (dissolved in 100% dimethyl sulfoxide [DMSO] or ethanol) in 100 μl liquid broth (TSB diluted 1/20) per well were prepared in the microtiter plate in duplicate or triplicate with a maximum concentration of 1,600 μM and a minimum concentration of 0.8 μM. Subsequently, an overnight culture of S. Typhimurium ATCC 14028, P. aeruginosa PA14, E. coli TG1, S. epidermidis, S. aureus SH1000, or S. aureus ATCC 6538 (all grown in LB) was diluted 1:100 into TSB diluted 1/20 (or TSB for S. epidermidis, S. aureus SH1000, and S. aureus ATCC 6538), whereas overnight cultures of S. liquefaciens MG44 and B. cepacia LMG1222T were diluted 1:50 into TSB diluted 1/20. P. gingivalis ATCC 33277 cultures were diluted in TSB diluted 1/20 to have a final concentration of 1 × 10^8 cells/ml. Next, 100 μl was added to each well of the microtiter plate, resulting in a total volume of 200 μl medium per well (final concentration range of compounds, 800 μM [2% DMSO or ethanol] to 0.4 μM [0.001% DMSO or ethanol]). In the next step, the pegged lid was placed on the microtiter plate and the plate was incubated for 24 h or 48 h at 25°C or 37°C without shaking. At 37°C, the plates were placed in a sealed container with wet towels on the bottom to prevent evaporation of the growth medium. Biofilms of P. gingivalis ATCC 33277 were grown anaerobically at 37°C for 72 h. During this incubation period, biofilms were formed on the surface of the pegs. After incubation, the optical density at 600 nm (OD600) for the planktonic cells in the microtiter plate was measured using a Synergy MX multimode reader (BioTek, Winooski, VT). This gives a first indication of the effect of the compounds on planktonic growth. For quantification of biofilm formation, the pegs were washed once in 200 μl PBS. The remaining attached bacteria were stained for 30 min with 200 μl 0.1% (wt/vol) crystal violet in an isopropanol-methanol-PBS solution (1:1:18, vol/vol). Excess stain was rinsed off by placing the pegs in a 96-well plate filled with 200 μl distilled water per well. After air drying of the pegs (30 min), the dye bound to the adherent biofilm was extracted with 30% glacial acetic acid (200 μl per well of a 96-well plate). The optical density at 570 nm (OD570) of each well was measured using a Synergy MX multimode reader (BioTek, Winooski, VT). The concentration of each compound needed to inhibit biofilm formation by 50% (BIC50) and the concentration of each compound needed to inhibit planktonic growth by 50% (IC50) were determined from the concentration gradient by using nonlinear curve fitting (GraphPad Prism software, version 5; GraphPad Software, Inc., La Jolla, CA). In the same assay, the effect on planktonic growth was evaluated. The activity was considered biofilm specific if the BIC50 was at least two times lower than the IC50. Data represent the means from at least 3 technical repeats with the corresponding 95% confidence intervals (provided in the supplemental material).

[2] = tested on: C. albicans SC5314; experiment: Inhibition of C. albicans biofilms, CellTiter-Blue quantification; assay type: cell-based, Candida albicans; settings: Candida albicans; C. albicans SC5314, 37°C, CTB method; read-out: BIC50 (μM) for C. albicans SC5314 (37°C)
Description: The potential of the compounds to prevent C. albicans SC5314 biofilm formation was assessed using the CellTiter-Blue (CTB) quantification method ([75]). […]. Twofold serial dilutions of the compounds (dissolved in 100% DMSO or ethanol) in 100 μl RPMI 1640 medium per well were prepared in a round-bottom polystyrene 96-well microtiter plate (TPP; Trasadingen, Switzerland) in duplicate or triplicate with a maximum concentration of 1,600 μM and a minimum concentration of 0.8 μM. One hundred microliters of the cell suspension was added to each well of the microtiter plate, resulting in a total volume of 200 μl medium per well (final concentration range of compounds, 800 μM [2% DMSO or ethanol] to 0.4 μM [0.001% DMSO or ethanol]). After 16 h of static incubation at 37°C, the biofilms were washed and quantified by the CTB method as described previously ([73]).

[3] = tested on: S. aureus ATCC 6538 + S. epidermidis; experiment: Mixed-species S. aureus-S. epidermidis biofilm assay (peg, crystal violet); assay type: cell-based, Staphylococcus aureus + Staphylococcus epidermidis; settings: 37°C
Description: Overnight cultures of S. aureus ATCC 6538 and S. epidermidis were grown in LB medium and were diluted 1/200 in the same vial of TSB to form a mixed-culture suspension. Next, 2-fold serial dilutions of the compounds (dissolved in 100% DMSO or ethanol) in 100 μl TSB medium per well were prepared in the microtiter plate (Nunc no. 269789) in duplicate or triplicate with a maximum concentration of 1,600 μM and a minimum concentration of 0.8 μM. One hundred microliters of the mixed-culture suspension was added to each well of the microtiter plate, resulting in a total volume of 200 μl medium per well (final concentration range of compounds, 800 μM [2% DMSO or ethanol] to 0.4 μM [0.001% DMSO or ethanol]). The cells were then incubated for 48 h at 37°C, which allowed biofilm formation on the pegs (Nunc no. 269789) of the Calgary biofilm device. After 24 h, fresh medium with compounds was added to the wells, and after 48 h, the biofilm was colored with crystal violet as described above ([74]). The OD570 (biofilm) and OD600 (planktonic) were measured, and the BIC50 and the IC50, respectively, were calculated.

[4] = PA14, P. aeruginosa PA14, 25°C, read-out: BIC50
[5] = PA14, P. aeruginosa PA14, 37°C, read-out: BIC50
[6] = PA14, P. aeruginosa PA14, 37°C, read-out: IC50 (planktonic growth)
[7] = 48 h, mixed S. aureus ATCC 6538 + S. epidermidis biofilm, read-out: BIC50
[8] = 48 h, mixed S. aureus ATCC 6538 + S. epidermidis, read-out: IC50 (planktonic growth)
[9] = PA14, P. aeruginosa PA14, 25°C, read-out: IC50 (planktonic growth)
[10] = mixed S. aureus ATCC 6538 + S. epidermidis, read-out: IC50 (planktonic growth)
[11] = mixed S. aureus ATCC 6538 + S. epidermidis biofilm, read-out: BIC50

| SMILES | IC50 [1, 4] [µM] | IC50 [1, 5] [µM] | IC50 [1, 6] [µM] | IC50 [2] [µM] | IC50 [1, 9] [µM] | IC50 [3, 10] [µM] | IC50 [3, 11] [µM] | IC50 [3, 7] [µM] | IC50 [3, 8] [µM] |
| --- | --- | --- | --- | --- | --- | --- | --- | --- | --- |
| CCCCCn1c(-c2ccccc2)cnc1N [Compound 1] | 2.1 | 104 | 45.2 | 145 |  |  |  | 44.2 | ~356 |
| CCCCCCCCn1c(-c2ccc(Cl)cc2)cnc1N [Compound 2] | 4 | 118 | 10 | 6.2 |  |  |  | ~7.2 | ~9.9 |
| CC(C)CNc1ncc(-c2ccc(Cl)cc2)[nH]1 [Compound 3] | 0.9 | > 400 | > 400 | 93.9 |  |  |  | ~26.3 | ~140 |
| CCCCNc1ncc(-c2ccc(Br)cc2)[nH]1 [Compound 4] | 9.8 | > 400 | > 400 | 66.7 |  |  |  | 6.8 | ~118 |
| Clc1ccc(-c2cnc(NC3CCCC3)[nH]2)cc1 [Compound 5] | 13.5 | > 400 | > 400 | 64 |  |  |  | ~66.6 | ~91.7 |
| Brc1ccc(-c2cnc(NCCn3cc(C4CC4)nn3)[nH]2)cc1 [Compound 6] | 71.6 | > 400 | > 400 | > 400 | > 400 |  |  | 33.9 | ~392 |

Continued, in another order:

| IC50 [1, 4] [µM] | IC50 [1, 5] [µM] | IC50 [1, 6] [µM] | IC50 [2] [µM] | IC50 [1, 9] [µM] | IC50 [3, 10] [µM] | IC50 [3, 11] [µM] | SMILES | IC50 [3, 7] [µM] | IC50 [3, 8] [µM] |
| --- | --- | --- | --- | --- | --- | --- | --- | --- | --- |
| > 400 | > 400 | 66 | 9.3 | 75.3 | ~26.1 |  | CCCCCCCCn1c(-c2ccccc2)cnc1NCC(C)C [Compound 8a] |  |  |
| > 400 | > 400 | 115 | 11 | 222 | ~22.2 | 1.1 | CCCCCCCCn1c(-c2ccc(Cl)cc2)cnc1NCC(C)C [Compound 8b] |  |  |
| > 400 | > 400 | 345 | > 100 | > 400 | > 400 | 5 | CCCCCCCCn1c(-c2ccc(Br)cc2)cnc1NCC(C)C [Compound 8c] |  |  |
| > 400 | > 400 | > 400 | > 100 | > 400 | > 400 | > 400 | CCCCCCCCn1c(-c2ccc(Cl)c(Cl)c2)cnc1NCC(C)C [Compound 8d] |  |  |
| > 400 | > 400 | 167 | ~11.9 | 62.9 | ~23.6 | ~3 | CCCCCCCCn1c(-c2ccccc2)cnc1NC1CCCC1 [Compound 8e] |  |  |
| > 400 | > 400 | > 400 | 8.9 | > 400 | ~22.5 | 2 | CCCCCCCCn1c(-c2ccc(Cl)cc2)cnc1NC1CCCC1 [Compound 8f] |  |  |
| > 400 | > 400 | > 400 | 21.1 | > 400 | 15.5 | ~5.6 | CCCCCCCCn1c(-c2ccc(Br)cc2)cnc1NC1CCCC1 [Compound 8g] |  |  |
| > 400 | > 400 | > 400 | > 100 | > 400 | ~25.1 | 4.9 | CCCCCCCCn1c(-c2ccc(Cl)c(Cl)c2)cnc1NC1CCCC1 [Compound 8h] |  |  |
